{"source": "patent US8192962B2", "about": "“Processes for detecting toxic substances” (Daikin Industries, Ltd., priority 2001, dated 2012)", "test_system": "Genes belonging to other category", "experiment": "DNA chip mRNA expression in yeast, genes belonging to other category (Table 9)", "type": "cell-based, Saccharomyces cerevisiae S288C", "outline": "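Whole-genome yeast DNA chip hybridization (65° C., >12 h) of Cy-labeled cDNA from S288C cells exposed 2 h at 25° C. to a sub-lethal toxicant dose in YPD; value is intensity relative to chemical-free control.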"}
{"substance": "manganese ethylenebis(dithiocarbamate) [(8)]", "values": [{"measurement": "The level of expressed mRNA in the presence of chemical substance/The level of expressed mRNA in the absence of chemical substance", "setting": "yeast gene YKL008C", "value": 1.2}, {"measurement": "The level of expressed mRNA in the presence of chemical substance/The level of expressed mRNA in the absence of chemical substance", "setting": "yeast gene YKL013C", "value": 0.9}, {"measurement": "The level of expressed mRNA in the presence of chemical substance/The level of expressed mRNA in the absence of chemical substance", "setting": "yeast gene YKL039W", "value": 0.8}, {"measurement": "The level of expressed mRNA in the presence of chemical substance/The level of expressed mRNA in the absence of chemical substance", "setting": "yeast gene YKL096W", "value": 0.5}, {"measurement": "The level of expressed mRNA in the presence of chemical substance/The level of expressed mRNA in the absence of chemical substance", "setting": "yeast gene YKL165C", "value": 1.5}, {"measurement": "The level of expressed mRNA in the presence of chemical substance/The level of expressed mRNA in the absence of chemical substance", "setting": "yeast gene YKL193C", "value": 1.4}, {"measurement": "The level of expressed mRNA in the presence of chemical substance/The level of expressed mRNA in the absence of chemical substance", "setting": "yeast gene YLR120C", "value": 0.9}, {"measurement": "The level of expressed mRNA in the presence of chemical substance/The level of expressed mRNA in the absence of chemical substance", "setting": "yeast gene YLR136C", "value": 1.1}, {"measurement": "The level of expressed mRNA in the presence of chemical substance/The level of expressed mRNA in the absence of chemical substance", "setting": "yeast gene YLR178C", "value": 0.9}, {"measurement": "The level of expressed mRNA in the presence of chemical substance/The level of expressed mRNA in the absence of chemical substance", "setting": "yeast gene YLR250W", "value": 1.3}, {"measurement": "The level of expressed mRNA in the presence of chemical substance/The level of expressed mRNA in the absence of chemical substance", "setting": "yeast gene YLR327C", "value": 2.2}, {"measurement": "The level of expressed mRNA in the presence of chemical substance/The level of expressed mRNA in the absence of chemical substance", "setting": "yeast gene YLR356W", "value": 0.7}, {"measurement": "The level of expressed mRNA in the presence of chemical substance/The level of expressed mRNA in the absence of chemical substance", "setting": "yeast gene YLR362W", "value": 1.4}, {"measurement": "The level of expressed mRNA in the presence of chemical substance/The level of expressed mRNA in the absence of chemical substance", "setting": "yeast gene YLR391W", "value": 0.7}, {"measurement": "The level of expressed mRNA in the presence of chemical substance/The level of expressed mRNA in the absence of chemical substance", "setting": "yeast gene YLR429W", "value": 1.0}, {"measurement": "The level of expressed mRNA in the presence of chemical substance/The level of expressed mRNA in the absence of chemical substance", "setting": "yeast gene YMR004W", "value": 1.0}, {"measurement": "The level of expressed mRNA in the presence of chemical substance/The level of expressed mRNA in the absence of chemical substance", "setting": "yeast gene YMR094W", "value": 1.0}, {"measurement": "The level of expressed mRNA in the presence of chemical substance/The level of expressed mRNA in the absence of chemical substance", "setting": "yeast gene YMR104C", "value": 0.9}, {"measurement": "The level of expressed mRNA in the presence of chemical substance/The level of expressed mRNA in the absence of chemical substance", "setting": "yeast gene YMR219W", "value": 1.1}, {"measurement": "The level of expressed mRNA in the presence of chemical substance/The level of expressed mRNA in the absence of chemical substance", "setting": "yeast gene YMR226C", "value": 1.6}, {"measurement": "The level of expressed mRNA in the presence of chemical substance/The level of expressed mRNA in the absence of chemical substance", "setting": "yeast gene YMR275C", "value": 0.8}, {"measurement": "The level of expressed mRNA in the presence of chemical substance/The level of expressed mRNA in the absence of chemical substance", "setting": "yeast gene YMR276W", "value": 0.8}, {"measurement": "The level of expressed mRNA in the presence of chemical substance/The level of expressed mRNA in the absence of chemical substance", "setting": "yeast gene YMR314W", "value": 1.2}, {"measurement": "The level of expressed mRNA in the presence of chemical substance/The level of expressed mRNA in the absence of chemical substance", "setting": "yeast gene YNL006W", "value": 1.1}, {"measurement": "The level of expressed mRNA in the presence of chemical substance/The level of expressed mRNA in the absence of chemical substance", "setting": "yeast gene YNL007C", "value": 0.8}, {"measurement": "The level of expressed mRNA in the presence of chemical substance/The level of expressed mRNA in the absence of chemical substance", "setting": "yeast gene YNL093W", "value": 0.8}, {"measurement": "The level of expressed mRNA in the presence of chemical substance/The level of expressed mRNA in the absence of chemical substance", "setting": "yeast gene YNL333W", "value": 2.1}, {"measurement": "The level of expressed mRNA in the presence of chemical substance/The level of expressed mRNA in the absence of chemical substance", "setting": "yeast gene YNR010W", "value": 1.1}, {"measurement": "The level of expressed mRNA in the presence of chemical substance/The level of expressed mRNA in the absence of chemical substance", "setting": "yeast gene YNR069C", "value": 1.4}, {"measurement": "The level of expressed mRNA in the presence of chemical substance/The level of expressed mRNA in the absence of chemical substance", "setting": "yeast gene YOL013C", "value": 1.0}, {"measurement": "The level of expressed mRNA in the presence of chemical substance/The level of expressed mRNA in the absence of chemical substance", "setting": "yeast gene YOL164W", "value": 1.0}, {"measurement": "The level of expressed mRNA in the presence of chemical substance/The level of expressed mRNA in the absence of chemical substance", "setting": "yeast gene YOR036W", "value": 1.4}, {"measurement": "The level of expressed mRNA in the presence of chemical substance/The level of expressed mRNA in the absence of chemical substance", "setting": "yeast gene YOR117W", "value": 1.0}, {"measurement": "The level of expressed mRNA in the presence of chemical substance/The level of expressed mRNA in the absence of chemical substance", "setting": "yeast gene YOR124C", "value": 1.3}, {"measurement": "The level of expressed mRNA in the presence of chemical substance/The level of expressed mRNA in the absence of chemical substance", "setting": "yeast gene YOR132W", "value": 1.2}, {"measurement": "The level of expressed mRNA in the presence of chemical substance/The level of expressed mRNA in the absence of chemical substance", "setting": "yeast gene YOR157C", "value": 1.2}, {"measurement": "The level of expressed mRNA in the presence of chemical substance/The level of expressed mRNA in the absence of chemical substance", "setting": "yeast gene YOR181W", "value": 0.7}, {"measurement": "The level of expressed mRNA in the presence of chemical substance/The level of expressed mRNA in the absence of chemical substance", "setting": "yeast gene YOR185C", "value": 1.4}, {"measurement": "The level of expressed mRNA in the presence of chemical substance/The level of expressed mRNA in the absence of chemical substance", "setting": "yeast gene YOR198C", "value": 1.3}, {"measurement": "The level of expressed mRNA in the presence of chemical substance/The level of expressed mRNA in the absence of chemical substance", "setting": "yeast gene YOR259C", "value": 1.1}, {"measurement": "The level of expressed mRNA in the presence of chemical substance/The level of expressed mRNA in the absence of chemical substance", "setting": "yeast gene YOR261C", "value": 2.6}, {"measurement": "The level of expressed mRNA in the presence of chemical substance/The level of expressed mRNA in the absence of chemical substance", "setting": "yeast gene YOR288C", "value": 1.9}, {"measurement": "The level of expressed mRNA in the presence of chemical substance/The level of expressed mRNA in the absence of chemical substance", "setting": "yeast gene YOR355W", "value": 0.8}, {"measurement": "The level of expressed mRNA in the presence of chemical substance/The level of expressed mRNA in the absence of chemical substance", "setting": "yeast gene YOR383C", "value": 1.0}, {"measurement": "The level of expressed mRNA in the presence of chemical substance/The level of expressed mRNA in the absence of chemical substance", "setting": "yeast gene YPL089C", "value": 0.8}, {"measurement": "The level of expressed mRNA in the presence of chemical substance/The level of expressed mRNA in the absence of chemical substance", "setting": "yeast gene YPL109C", "value": 1.1}, {"measurement": "The level of expressed mRNA in the presence of chemical substance/The level of expressed mRNA in the absence of chemical substance", "setting": "yeast gene YPL149W", "value": 1.1}, {"measurement": "The level of expressed mRNA in the presence of chemical substance/The level of expressed mRNA in the absence of chemical substance", "setting": "yeast gene YPL154C", "value": 0.8}, {"measurement": "The level of expressed mRNA in the presence of chemical substance/The level of expressed mRNA in the absence of chemical substance", "setting": "yeast gene YPR103W", "value": 1.0}, {"measurement": "The level of expressed mRNA in the presence of chemical substance/The level of expressed mRNA in the absence of chemical substance", "setting": "yeast gene YPR108W", "value": 1.6}]}
